From article PMC5011961, “In vitro antimicrobial activities of animal-used quinoxaline 1,4-di-N-oxides against mycobacteria, mycoplasma and fungi” (BMC Veterinary Research, 2016)
≈ marks a conversion by molar mass, not a printed value. Like-named read-outs stand apart in the source and are kept apart here.

What was measured:
IBDV = experiment: Antiviral assay (CPE/MTT; adsorption inhibition, infection inhibition, virucidal); type: cell-based, infectious bursal disease virus; set-up: key to IC50: “--” represent not detected owing to the low inhibition ratio; details: for IC50: IBDV, mean±SD of four experiments
Marc-145 cells = experiment: Cytotoxicity assay (MTT); details: for TC50: Marc-145, 72 h, MTT, mean ± SD, n = 4; for MNTC: Marc-145, maximum non-cytotoxic concentration (90 % cell viability)
PPV = experiment: Antiviral assay (CPE/MTT; adsorption inhibition, infection inhibition, virucidal); type: cell-based, porcine parvovirus; set-up: key to IC50: “--” represent not detected owing to the low inhibition ratio; details: for IC50: PPV, mean±SD of four experiments
PRRSV = experiment: as above; type: cell-based, porcine reproductive and respiratory syndrome virus; set-up: key to IC50: “--”represent not detected owing to the low inhibition ratio; details: for IC50: PRRSV, mean±SD of four experiments
DF-1 cells = experiment: Cytotoxicity assay (MTT); details: for TC50: DF-1, 72 h, MTT, mean ± SD, n = 4; for MNTC: DF-1, maximum non-cytotoxic concentration (90 % cell viability)
PK-15 cells = experiment: Cytotoxicity assay (MTT); details: for TC50: PK-15, 72 h, MTT, mean ± SD, n = 4; for MNTC: PK-15, maximum non-cytotoxic concentration (90 % cell viability)
M. gallisepticum = experiment: Antimycoplasma assay, MIC in microtiter plates; details: Mycoplasmoides gallisepticum
Experimental: Briefly, 96-well microtiter Sensititre plates containing stabilized and freeze-dried antimicrobials were used. Three wells on each plate were set as antimicrobial free growth control. Freshly thawed mycoplasma isolates with known titers were diluted in liquid medium until the number of organisms reached 10^4 color changing units/mL. 50 μL of the diluted culture was transferred into each well of the Sensititre plates. […] The plates were sealed using an adhesive foil and incubated at 36 °C for 14 days. The growth of M. hyopneumoniae was observed daily when the color of the medium changed from red to yellow (phenol red indicator), and the initial and final MICs were recorded.

M. bovis ATCC 19210 = experiment: microbe, parasite or virus in culture; type: cell-based, Mycobacterium bovis
[1] = tested on: M. tuberculosis H37Rv ATCC 27294; experiment: Microdilution alamar blue assay (MABA); type: cell-based, Mycobacterium tuberculosis
[2] = in words, infection inhibition, virucidal and adsorption inhibition assays
[3] = M. gallisepticum BG44T (10^4ccu/mL)
[4] = M. gallisepticum PG31 (10^8 ccu/mL)
[5] = Mycobacterium tuberculosis variant bovis, ATCC19210
[6] = Mycobacterium tuberculosis, read-out: MIC

| SMILES | TC50 (Marc-145 cells) | MNTC (Marc-145 cells) | TC50 (DF-1 cells) | MNTC (DF-1 cells) | IC50 (IBDV; Inactivation) | IC50 (IBDV; Prevention) | IC50 (IBDV; Treatment) | IC50 (PPV; Inactivation) | IC50 (PPV; Prevention) | IC50 (PPV; Treatment) | TC50 (PK-15 cells) | MNTC (PK-15 cells) | IC50 (PRRSV; Inactivation) | IC50 (PRRSV; Prevention) | IC50 (PRRSV; Treatment) | further results |
| --- | --- | --- | --- | --- | --- | --- | --- | --- | --- | --- | --- | --- | --- | --- | --- | --- |
| NC(=O)c1ncn([C@@H]2O[C@H](CO)[C@@H](O)[C@H]2O)n1 [Ribavirin, ribavirin] | 75.49 ± 2.54 µg/mL (≈ 309 µM) | 8.6 µg/mL | 67.42 ± 2.58 µg/mL (≈ 276 µM) | 4.0 µg/mL |  |  |  |  |  |  |  |  |  |  |  | IC50 (IBDV; Infectious bursal disease virus, Inactivation, read-out: IC50): 1.18 ± 0.21 µg/mL; IC50 (IBDV; Infectious bursal disease virus, Prevention, read-out: IC50): 0.87 ± 0.18 µg/mL; IC50 (IBDV; Infectious bursal disease virus, Treatment, read-out: IC50): 0.58 ± 0.12 µg/mL; effectiveness against IBDV in vitro (IBDV; [2]): good inhibitory activity; IC50 (PPV; Porcine parvovirus, Inactivation, read-out: IC50): 0.85 ± 0.17 µg/mL; IC50 (PPV; Porcine parvovirus, Prevention, read-out: IC50): 0.68 ± 0.15 µg/mL; IC50 (PPV; Porcine parvovirus, Treatment, read-out: IC50): 0.49 ± 0.07 µg/mL; effectiveness against PPV in vitro (PPV; [2]): good inhibitory activity; IC50 (PRRSV; Porcine reproductive and respiratory syndrome virus, Inactivation, read-out: IC50): 6.29 ± 0.38 µg/mL; IC50 (PRRSV; Porcine reproductive and respiratory syndrome virus, Prevention, read-out: IC50): 9.58 ± 0.56 µg/mL; IC50 (PRRSV; Porcine reproductive and respiratory syndrome virus, Treatment, read-out: IC50): 4.64 ± 0.24 µg/mL; effectiveness against PRRSV in vitro (PRRSV; [2]): good inhibitory activity |
| Cc1c(C(C)O)[n+]([O-])c2ccccc2[n+]1[O-] (stereo not drawn) [M6, carbonyl reduction mequindox] | 89.82 ± 1.57 µg/mL (≈ 408 µM) | 2.0 µg/mL | 41.26 ± 1.27 µg/mL (≈ 187 µM) | 2.0 µg/mL | -- | -- | -- | -- | -- | -- | 78.82 ± 3.57 µg/mL (≈ 358 µM) | 2.0 µg/mL | -- | -- | -- |  |
| CO[C@@H]1[C@@H](O[C@@H]2O[C@H](C)[C@@H](O[C@H]3C[C@@](C)(O)[C@@H](OC(=O)CC(C)C)[C@H](C)O3)[C@H](N(C)C)[C@H]2O)[C@@H](CC=O)C[C@@H](C)[C@@H](O)/C=C/C=C/C[C@@H](C)OC(=O)C[C@H]1O [Kitasamycin, kitasamycin] |  |  |  |  |  |  |  |  |  |  |  |  |  |  |  | MIC (M. gallisepticum; [3]): 0.05 µg/mL (≈ 0.0636 µM); MIC (M. gallisepticum; [4]): 0.05 µg/mL (≈ 0.0636 µM) |
| NC[C@H]1O[C@H](O[C@H]2[C@H](O)[C@@H](O[C@H]3O[C@H](CO)[C@@H](O)[C@H](N)[C@H]3O)[C@H](N)C[C@@H]2N)[C@H](O)[C@@H](O)[C@@H]1O [Kanamycin] |  |  |  |  |  |  |  |  |  |  |  |  |  |  |  | MIC (M. bovis ATCC 19210; M. bovis ATCC 19210): 0.2 µg/mL (≈ 0.413 µM); MIC [1]: 0.2 µg/mL (≈ 0.413 µM) |
| N#CCC(=O)N/N=C/c1c[n+]([O-])c2ccccc2n1 [Cy10, N1-deoxy cyadox] | 33.62 ± 1.85 µg/mL (≈ 132 µM) | 2.0 µg/mL | 49.2 ± 1.93 µg/mL (≈ 193 µM) | 2.0 µg/mL | -- | -- | -- | -- | -- | -- | 25.27 ± 1.55 µg/mL (≈ 99 µM) | 2.0 µg/mL | -- | -- | -- |  |
| CN1C[C@@H]2C[C@H]1CN2c1cc2c(cc1F)c(=O)c(C(=O)O)cn2C1CC1 [Danofloxacin, danofloxacin] |  |  |  |  |  |  |  |  |  |  |  |  |  |  |  | MIC (M. gallisepticum; [3]): 0.05 µg/mL (≈ 0.14 µM); MIC (M. gallisepticum; [4]): 0.05 µg/mL (≈ 0.14 µM) |
| N#CCC(=O)N/N=C/c1cnc2ccccc2n1 [Cy1, bi-deoxy Cyadox] | 37.83 ± 1.67 µg/mL (≈ 158 µM) | 3.9 µg/mL | 32.97 ± 2.35 µg/mL (≈ 138 µM) | 2.0 µg/mL | -- | -- | -- | -- | -- | -- | 23.40 ± 2.14 µg/mL (≈ 97.8 µM) | 2.0 µg/mL | -- | -- | -- |  |
| CC(=O)c1nc2ccccc2nc1C [M1, bi-deoxy Mequindox] | 70.77 ± 1.57 µg/mL (≈ 380 µM) | 1.0 µg/mL | 54.8 ± 1.93 µg/mL (≈ 294 µM) | 1.0 µg/mL | -- | -- | -- | -- | -- | -- | 72.90 ± 2.66 µg/mL (≈ 391 µM) | 2.0 µg/mL | -- | -- | -- |  |
| CC[C@@H](CO)NCCN[C@@H](CC)CO [Ethambutol, ethambutol] |  |  |  |  |  |  |  |  |  |  |  |  |  |  |  | MIC (M. bovis ATCC 19210; [5]): 0.025 µg/mL (≈ 0.122 µM); MIC [1, 6]: 0.025 µg/mL (≈ 0.122 µM) |
| NCC[C@H](O)C(=O)N[C@@H]1C[C@H](N)[C@@H](O[C@H]2O[C@H](CN)[C@@H](O)[C@H](O)[C@H]2O)[C@H](O)[C@H]1O[C@H]1O[C@H](CO)[C@@H](O)[C@H](N)[C@H]1O [Amikacin] |  |  |  |  |  |  |  |  |  |  |  |  |  |  |  | MIC (M. bovis ATCC 19210; [5]): 1.6 µg/mL (≈ 2.73 µM); MIC [1, 6]: 3.2 µg/mL (≈ 5.46 µM) |
| Cc1c(C(C)O)nc2ccccc2[n+]1[O-] (stereo not drawn) [M4, carbonyl reduction N1-deoxy mequindox] | 128.62 ± 2.67 µg/mL (≈ 630 µM) | 3.9 µg/mL | 37.75 ± 2.68 µg/mL (≈ 185 µM) | 1.0 µg/mL | -- | -- | -- | -- | -- | -- | 40.81 ± 1.27 µg/mL (≈ 200 µM) | 3.9 µg/mL | -- | -- | -- |  |
| NC(=O)c1cnccn1 [Pyrazinamide, pyrazinamide] |  |  |  |  |  |  |  |  |  |  |  |  |  |  |  | MIC (M. bovis ATCC 19210; [5]): 0.8 µg/mL (≈ 6.5 µM); MIC [1, 6]: 0.8 µg/mL (≈ 6.5 µM) |
| CN(C)[C@@H]1C(O)=C(C(N)=O)C(=O)[C@@]2(O)C(O)=C3C(=O)c4c(O)cccc4[C@@](C)(O)[C@H]3C[C@@H]12 [Tetracycline, tetracycline] |  |  |  |  |  |  |  |  |  |  |  |  |  |  |  | MIC (M. gallisepticum; [3]): 0.4 µg/mL (≈ 0.9 µM); MIC (M. gallisepticum; [4]): 0.8 µg/mL (≈ 1.8 µM) |
| CCC[C@@H]1C[C@@H](C(=O)N[C@@H]([C@H]2O[C@H](SC)[C@H](O)[C@@H](O)[C@H]2O)[C@@H](C)O)N(C)C1 [Lincomycin, lincomycin] |  |  |  |  |  |  |  |  |  |  |  |  |  |  |  | MIC (M. gallisepticum; [3]): 8 µg/mL (≈ 19.7 µM); MIC (M. gallisepticum; [4]): 8 µg/mL (≈ 19.7 µM) |
| N#CCC(=O)N/N=C/c1cnc2ccccc2[n+]1[O-] [Cy2, N4-deoxy cyadox] | 96.55 ± 3.12 µg/mL (≈ 378 µM) | 2.0 µg/mL | 35.48 ± 2.87 µg/mL (≈ 139 µM) | 1.0 µg/mL | -- | -- | -- | -- | -- | -- | 51.73 ± 2.96 µg/mL (≈ 203 µM) | 2.0 µg/mL | -- | -- | -- |  |
| C[C@H]1c2cccc(O)c2C(=O)C2=C(O)[C@]3(O)C(=O)C(C(N)=O)=C(O)[C@@H](N(C)C)[C@@H]3[C@@H](O)[C@@H]21 [Doxycycline, doxycycline] |  |  |  |  |  |  |  |  |  |  |  |  |  |  |  | MIC (M. gallisepticum; [3]): 0.1 µg/mL (≈ 0.225 µM); MIC (M. gallisepticum; [4]): 0.2 µg/mL (≈ 0.45 µM) |
| [H]/N=C(/N)N[C@H]1[C@H](O)[C@@H](O)[C@H](O[C@@H]2O[C@@H](C)[C@](O)(C=O)[C@H]2O[C@@H]2O[C@@H](CO)[C@H](O)[C@@H](O)[C@@H]2NC)[C@@H](N/C(N)=N\[H])[C@@H]1O [Streptomycin, streptomycin] |  |  |  |  |  |  |  |  |  |  |  |  |  |  |  | MIC (M. bovis ATCC 19210; [5]): 0.013 µg/mL (≈ 0.0224 µM); MIC [1, 6]: 0.025 µg/mL (≈ 0.043 µM) |
| Cc1nc2ccccc2nc1C(C)O (stereo not drawn) [M5, carbonyl reduction bi-deoxy mequindox] | 89.66 ± 2.14 µg/mL (≈ 476 µM) | 2.0 µg/mL | 38.2 ± 2.09 µg/mL (≈ 203 µM) | 2.0 µg/mL | -- | -- | -- | -- | -- | -- | 40.41 ± 3.21 µg/mL (≈ 215 µM) | 2.0 µg/mL | -- | -- | -- |  |
